Results taken from patent publication US20180344715A1, “WNT/BETA-CATENIN SIGNAL TRANSDUCTION INHIBITORS AND THEIR USE IN TREATMENT OR PREVENTION OF DISEASES AND CONDITIONS LINKED WITH SAID TRANSDUCTION” (BERGEN TEKNOLOGIOVERFORING AS, priority 2015, published 2018).

Experiments:
β-catenin = assay: Western blotting of β-catenin in SW480 cells; assay type: cell-based
Procedure: Culture cells were lysed in RIPA buffer (50 mM Tris-HCl, pH 7.4, 150 mM NaCl, 1% NP-40, 0.5% sodium deoxycholate, 0.1% SDS, 1 mM EDTA) containing freshly added protease inhibitors (Roche, 11836153001). Protein lysates were resolved in Novex 10% BisTris MiniGels (Life technologies, NP0303BOX) and transferred onto PVDF membranes with Pierce 1-Step Transfer Buffer (Thermo Fisher Scientific, 84731). Membranes were developed by using Pierce Fast Western Blot Kit with ECL Substrate (Thermo Fisher Scientific, 35050) and primary antibodies (β-catenin, ab16051, 1:2000 Abcam; GAPDH, ab181602, clone EPR16891, 1:20000, Abcam; hemagglutinin, ab9134, 1:2000, Abcam; FLAG, ab1162, 1:1000, Abcam; ubiquitin, ab7254, clone Ubi-1, 1:5000, Abcam; SHPRH, ab80129, 1:1000, Abcam; non-phospho-(active) β-catenin (Ser33/37/Thr41), 4270, 1:1000, Cell Signaling Technology; phospho-3-catenin (Ser33/37/Thr41), 9561, 1:1000, Cell Signaling Technology; β-catenin-Thr41/Ser45, 9565, 1:1000, Cell Signaling Technology; MED23, BD550429, clone D27-1805, 1:500, BD Biosciences). Proteins were visualized and captured by a ChemiDOC XRS system and Quantity One software (Bio-Rad Laboratories).

Apc^min/+ mice = assay: Apc min/+ mice study (intestinal adenomas, H&E and IHC); assay type: in vivo; details: 50 mg/kg daily for 5 weeks
Source text: C57BL/6-Apc^min/+ mice were obtained from the Model Animal Research Center of Nanjing University (Nanjing, China). Mice were housed and fed a standard rodent diet at the Animal Facility of the Second Military Medical University (Shanghai, China) in compliance with the institutional guidelines of the Animal Care and Use Committee. […] The mice were weighed weekly and monitored daily for any signs of illness. The mice were sacrificed at the last day of the treatment. The small intestines were dissected, washed in PBS, fixed in 4% PBS-buffered formaldehyde and embedded in paraffin using standard procedures.
H&E and IHC were performed according to the protocol previously described (Qu, Y. et al, supra). Primary antibodies used for IHC were β-catenin (ab16051, 1:1000, Abcam), Ki67 (ab16667, clone SP6, 1:100, Abcam) and BrdU (ab6326, clone BU1/75, 1:80, Abcam). Investigators were blinded when counting the intestinal adenomas and assessing the homeostasis of mice and fish intestine. Histologic images were captured using the Qcapture Suite software with a Qimaging Exi Blue camera attached to a Leica DMRBE microscope.

SW480-7TGC cells = assay: Wnt ACD assay; assay type: cell-based; details: 5 μM; never found in control cells
Source text: Unequal Wnt signaling was considered when paired cells had intensity ratio higher than 2.

MED23 = molecular target: T1, MED23 (Homo sapiens, UniProt Q9ULK4); assay: Cellular thermal shift assay (CETSA), MED23; assay type: binding; details: SW480, 10 μM
T1 construct: endogenous in cells; host or cells: SW480
T1 sequence (Q9ULK4 1-1368): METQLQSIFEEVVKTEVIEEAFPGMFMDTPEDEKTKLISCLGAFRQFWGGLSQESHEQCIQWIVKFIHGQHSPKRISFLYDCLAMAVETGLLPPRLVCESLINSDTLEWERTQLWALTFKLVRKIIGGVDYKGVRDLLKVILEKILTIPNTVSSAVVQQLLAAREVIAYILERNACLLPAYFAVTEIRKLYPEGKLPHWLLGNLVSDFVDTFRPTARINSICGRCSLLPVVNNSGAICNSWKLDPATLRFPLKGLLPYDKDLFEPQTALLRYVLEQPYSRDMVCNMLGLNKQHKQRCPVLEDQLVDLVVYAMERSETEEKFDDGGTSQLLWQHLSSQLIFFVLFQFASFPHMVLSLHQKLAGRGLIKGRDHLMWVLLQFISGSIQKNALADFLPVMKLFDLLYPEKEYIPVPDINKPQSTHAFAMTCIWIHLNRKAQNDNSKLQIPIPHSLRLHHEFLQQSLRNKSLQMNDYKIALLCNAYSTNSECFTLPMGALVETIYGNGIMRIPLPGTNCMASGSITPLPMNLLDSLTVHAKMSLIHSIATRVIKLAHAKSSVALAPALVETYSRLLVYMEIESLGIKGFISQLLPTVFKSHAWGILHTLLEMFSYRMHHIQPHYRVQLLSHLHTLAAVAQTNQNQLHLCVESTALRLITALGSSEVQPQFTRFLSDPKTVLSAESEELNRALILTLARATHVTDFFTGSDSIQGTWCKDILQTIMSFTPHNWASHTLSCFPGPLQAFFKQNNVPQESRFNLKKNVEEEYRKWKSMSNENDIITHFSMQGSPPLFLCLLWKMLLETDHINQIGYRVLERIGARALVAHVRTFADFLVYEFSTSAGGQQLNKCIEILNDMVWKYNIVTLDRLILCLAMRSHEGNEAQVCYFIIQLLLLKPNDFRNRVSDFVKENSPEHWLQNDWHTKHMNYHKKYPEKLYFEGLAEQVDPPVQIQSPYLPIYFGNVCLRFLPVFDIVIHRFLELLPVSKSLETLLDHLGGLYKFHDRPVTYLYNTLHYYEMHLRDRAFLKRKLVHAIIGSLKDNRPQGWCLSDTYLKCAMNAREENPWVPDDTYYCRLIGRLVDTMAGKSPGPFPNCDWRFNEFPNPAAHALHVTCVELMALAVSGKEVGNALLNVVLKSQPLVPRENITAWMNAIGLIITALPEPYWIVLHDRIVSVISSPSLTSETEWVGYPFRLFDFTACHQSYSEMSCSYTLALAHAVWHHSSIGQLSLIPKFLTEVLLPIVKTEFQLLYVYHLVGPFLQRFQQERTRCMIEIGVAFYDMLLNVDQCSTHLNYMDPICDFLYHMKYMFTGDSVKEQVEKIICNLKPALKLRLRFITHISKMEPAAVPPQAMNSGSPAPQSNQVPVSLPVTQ
Procedure: CETSA in intact cells was performed according to the protocol previously described (Martinez Molina, D. et al., 2013, Science 341, 84-87). Briefly, SW480 cells were seeded equally in 2 T75 flasks and allowed to reach 80% confluence one day after. […] After trypsinization and PBS wash, cells were resuspended in 450 μl PBS containing freshly added protease inhibitors and equally divided between 7 tubes. Cells in each tube were heated at indicated temperatures for 3 minutes and kept at room temperature for 3 minutes. Heated cells were lysed by 3 cycles of freezing in liquid nitrogen (1 minute) and thawing in room temperature water (1 minute). The cell lysates were centrifuged at 20,000 g for 20 minutes at 4° C. The soluble fractions were isolated for Western blotting analysis.

## CNC(=O)c1ccccc1Sc1ccc2c(/C=C/c3ccccn3)n[nH]c2c1 [axitinib, N-Methyl-2-[[3-[(E)-2-pyridin-2-ylethenyl]-1H-indazol-6-yl]sulfanyl]benzamide]
β-catenin; APC mutant SW480 cells, 24 hours
  phosphorylated and non-phospho (active) β-catenin (ABC): reduced
β-catenin; SW480, dose course 24 hours, time course at 5 μM
  β-catenin level (Western blots): dose and time dependent decrease
Apc^min/+ mice
  normal-looking small intestine: mucosa organization, crypt density, distribution of Ki67 positive cells: no obvious change
  nuclear β-catenin in adenomas (IHC): reduced nuclear β-catenin
  staining of the proliferation marker Ki67 in adenomas: Obviously weaker staining
Apc^min/+ mice; oral gavage
  numbers of multi-villus adenomas and microadenomas: significantly decreased
SW480-7TGC cells
  paired cells with unequal TCF-GFP expression (Wnt ACD): up to 10%
MED23
  direct binding in intact living cells: confirmed
